Results from patent publication US11857535B2, “Methods of treating mutant lymphomas” (Kymera Therapeutics, Inc., priority 2020, dated 2024).
Converted amounts (≈) assume the structure as drawn.

Tests used:
[1] = Solubility in oral dosing vehicle; type: physicochemical; details: 10% HP-β-CD vehicle (oral dosing vehicle), aqueous with cosolvent or surfactant or cyclodextrin; 10% HP-β-CD in water at pH 3.5 (w/v), 25 C; read-out: measured solubility
Method: Formulation: 10% HP-β-CD in water at pH 3.5 (w/v) in water at pH 3.5 (w/v) • Prepare the 10% HP-β-CD vehicle on a (w/v) basis • Add compound with stirring. • Heat to ˜50 C for 10 minutes. Can also sonicate. • Adjust pH to 3.5. • Heat for another 10-20 minutes at ˜50 C. • Check and adjust the pH as needed. • Expect solution as the measured solubility was 10 mg/mL at 25 C.

[2] = system: OCI-LY10 tumor xenographs; assay: OCI-Ly10 xenograph tumor study (tumor volume, TGI, responses); type: in vivo, mouse; design: key to TGI (D14): TGI % = (1−T/C)×100; details: for TGI (28D): TGI=(1-T/C)100
Method: Cell Culture: The OCI-LY10 tumor cells were maintained as suspension in RPMI1640 medium supplemented with 10% fetal bovine serum, 100 U/mL penicillin and 100 μg/mL streptomycin at 37° C. in an atmosphere of 5% CO2 in air. The tumor cells were routinely subcultured twice weekly by trypsin-EDTA treatment. The cells growing in an exponential growth phase were harvested and counted for tumor inoculation.
Animals: C.B. 17 SCID, female, 6-8 weeks, weighing approximately 16-18 g were used. Animals were housed and maintained according to IACUC protocols.
Tumor Inoculation: Each mouse was inoculated subcutaneously at the right flank with OCI-LY10 tumor cells (10×10^6) in 0.2 mL of PBS with matrigel for tumor development. The treatments were started when the tumor sizes reached approximately 150-450 mm^3 for the studies.
Assignment to Groups: Before commencement of treatment, all animals were weighed and the tumor volumes were measured. Since the tumor volume can affect the compound PK/PD, mice are assigned into groups using an Excel-based randomization procedure performing stratified randomization based upon their tumor volumes.
Observation: After tumor inoculation, the animals were checked daily for morbidity and mortality. During routine monitoring, the animals were checked for any effects of tumor growth and treatments on behavior such as mobility, food and water consumption, body weight gain/loss, eye/hair matting and any other abnormalities. Mortality and observed clinical signs were recorded for individual animals in detail.
Data Collection: Tumor volumes were measured in two dimensions using a caliper, and the volumes were expressed in mm^3 using the formula: ″V=(L×W×W)/2, where V is tumor volume, L is tumor length (the longest tumor dimension) and W is tumor width (the longest tumor dimension perpendicular to L).
TGI (tumor growth inhibition)=(1−T/C)100; PR (partial response)≥50% tumor shrinkage; CR (complete response)>95% tumor shrinkage from starting volume

[3] = 10 mg/kg PO, D1-7 (line noted BENCHMARK)
[4] = 10 mg/kg PO, D1-7 (second line of this schedule)

CC(C)(O)c1cc2nc([C@H]3CC[C@H](CN4CC5(CC(CCNc6cccc7c6C(=O)N(C6CCC(=O)NC6=O)C7=O)C5)C4)CC3)sc2cc1NC(=O)c1cccc(C(F)(F)F)n1 (stereo partly drawn) [Compound A, N-(2-((1r,4r)-4-((6-(2-((2-(2,6-dioxopiperidin-3-yl)-1,3-dioxoisoindolin-4-yl)amino)ethyl)-2-azaspiro[3.3]heptan-2-yl)methyl)cyclohexyl)-5-(2-hydroxypropan-2-yl)benzo[d]thiazol-6-yl)-6-(trifluoromethyl)picolinamide]
solubility [1]: 10000 µg/mL (≈ 11.5 mM) | PR (partial response), animals ([2]; 3 mg/kg IV, D1, 2, 8, 9): 3 | TGI (D14) ([2]; 3 mg/kg IV, D1, 2, 8, 9): 89 | PR (partial response), animals ([2]; 3 mg/kg IV, D1, 4, 8, 11): 3 | TGI (D14) ([2]; 3 mg/kg IV, D1, 4, 8, 11): 89 | PD (progressive disease), animals ([2]; 5 mg/kg PO, D1-4, 15-18): 1 | TGI (D14) ([2]; 5 mg/kg PO, D1-4, 15-18): 62 | Notes ([2]; 5 mg/kg PO, D1-4, 15-18, note continues 'D14'): All tumors growing after | PR (partial response), animals ([2]; 5 mg/kg PO, D1-7): 2 | TGI (D14) ([2]; 5 mg/kg PO, D1-7): 75 | Notes ([2]; 5 mg/kg PO, D1-7, note continues 'D14'): All tumors growing after | PR (partial response), animals ([2]; 6 mg/kg IV, D1, 2, 8, 9): 5 | TGI (D14) ([2]; 6 mg/kg IV, D1, 2, 8, 9): 94 | PR (partial response), animals ([2]; 10 mg/kg PO, D1, 2, 8, 9): 2 | TGI (D14) ([2]; 10 mg/kg PO, D1, 2, 8, 9): 88 | Notes ([2]; 10 mg/kg PO, D1, 2, 8, 9, note continues 'and continue trending down'): All show tumor regression | PR (partial response), animals ([2]; 10 mg/kg PO, D1, 4, 8, 11): 5 | TGI (D14) ([2]; 10 mg/kg PO, D1, 4, 8, 11): 85 | Notes: PR on D18, animals ([2]; 10 mg/kg PO, D1, 4, 8, 11, D18): 6 | Notes: near PR on D18, animals ([2]; 10 mg/kg PO, D1, 4, 8, 11, D18): 1 | PD (progressive disease), animals ([2]; 10 mg/kg PO, D1-3): 1 | PR (partial response), animals ([2]; 10 mg/kg PO, D1-3): 5 | TGI (D14) ([2]; 10 mg/kg PO, D1-3): 82 | Notes ([2]; 10 mg/kg PO, D1-3, note continues 'regression'): All SD show some | PR (partial response), animals ([2]; 10 mg/kg PO, D1-4, 15-18): 7 | TGI (D14) ([2]; 10 mg/kg PO, D1-4, 15-18): 87 | Notes ([2]; 10 mg/kg PO, D1-4, 15-18, note continues 'significantly from D10'): All tumors shrank | CR (complete response), animals [2, 3]: 1 | PR (partial response), animals [2, 3]: 6 | TGI (D14) [2, 3]: 96 | CR (complete response), animals [2, 4]: 1 | PR (partial response), animals [2, 4]: 6 | TGI (D14) [2, 4]: 97 | PR (partial response), animals ([2]; 12 mg/kg IV, D1, 8): 5 | TGI (D14) ([2]; 12 mg/kg IV, D1, 8): 94 | Notes ([2]; 12 mg/kg IV, D1, 8,, note continues 'and continue trending down'): All show tumor regression | PR (partial response), animals ([2]; 15 mg/kg PO, D1, 2, 8, 9): 7 | TGI (D14) ([2]; 15 mg/kg PO, D1, 2, 8, 9): 91 | Notes ([2]; 15 mg/kg PO, D1, 2, 8, 9, note continues 'significantly from D10'): Very Active: Tumors shrank | Notes: tumors growing slightly ([2]; 15 mg/kg PO, D1, 8, 15): 2/5 are growing slightly | Notes: tumors with some regression ([2]; 15 mg/kg PO, D1, 8, 15): 3/5 show some regression; | TGI (D14) ([2]; 15 mg/kg PO, D1, 8, 15): 83 | CR (complete response), animals ([2]; 20 mg/kg PO, D1-3): 1 | PR (partial response), animals ([2]; 20 mg/kg PO, D1-3): 6 | TGI (D14) ([2]; 20 mg/kg PO, D1-3): 96 | CR (complete response), animals ([2]; 30 mg/kg PO, D1,2): 4 | PR (partial response), animals ([2]; 30 mg/kg PO, D1,2): 3 | TGI (D14) ([2]; 30 mg/kg PO, D1,2): 99 | Notes: CR by D18, animals ([2]; 30 mg/kg PO, D1,2, D18): 6 CR by D18 | CR (complete response), animals ([2]; 30 mg/kg PO, D1, 4, 8): 3 | PR (partial response), animals ([2]; 30 mg/kg PO, D1, 4, 8): 4 | TGI (D14) ([2]; 30 mg/kg PO, D1, 4, 8): 97 | Notes: CR at D18, animals ([2]; 30 mg/kg PO, D1, 4, 8, D18): 5 | Notes: PR at D18, animals ([2]; 30 mg/kg PO, D1, 4, 8, D18): 2 | Notes ([2]; 30 mg/kg PO, D1, 4, 8, at D18): Tumors continue to regress | CR (complete response), animals ([2]; 30 mg/kg PO, D1, 8, 15): 2 | PR (partial response), animals ([2]; 30 mg/kg PO, D1, 8, 15): 5 | TGI (D14) ([2]; 30 mg/kg PO, D1, 8, 15): 96 | CR (complete response), animals ([2]; 30 mg/kg PO, D1-3): 4 | PR (partial response), animals ([2]; 30 mg/kg PO, D1-3): 3 | TGI (D14) ([2]; 30 mg/kg PO, D1-3): 99 | Notes: CR by D18, animals ([2]; 30 mg/kg PO, D1-3, D18): 7 CR by D18 | CR (complete response), animals ([2]; 45 mg/kg PO, D1,2): 4 | PR (partial response), animals ([2]; 45 mg/kg PO, D1,2): 3 | TGI (D14) ([2]; 45 mg/kg PO, D1,2): 99 | Notes: CR by D18, animals ([2]; 45 mg/kg PO, D1,2, D18): 7 CR by D18 | CR (complete response), animals ([2]; 60 mg/kg PO, D1): 2 | PR (partial response), animals ([2]; 60 mg/kg PO, D1): 5 | TGI (D14) ([2]; 60 mg/kg PO, D1): 97 | tumor response in OCI-Ly10 xenographs ([2]; 3 mpk x 21 d): regressions | PR (partial response), animals ([2]; 3 mpk, PR ≥50% tumor shrinkage): 4 | TGI (28D) ([2]; 3 mpk): 91% | CR (complete response), animals ([2]; 10 mpk, CR >95% tumor shrinkage from starting volume): 5CR | TGI (28D) ([2]; 10 mpk): 99.9% | CR (complete response), animals ([2]; 30 mpk, CR >95% tumor shrinkage from starting volume): 5CR | TGI (28D) ([2]; 30 mpk): 99.9% | regressions compared with Compound B ([2]; OCI-Ly10 tumor xenographs, FIG. 2): more potent regressions than Compound B | IV versus PO activity ([2]; QW and BIW schedules, FIG. 3): equally active | Efficacy, IV versus PO ([2]; comparison of both routes of administration): Efficacy is equivalent between both ROA | tumor response on intermittent schedule ([2]; dosed BIW every 3 weeks, FIG. 3): induces regression | tumor response in OCI-Ly10 xenographs ([2]; higher doses (>10 mpk)): more rapid and complete regressions | Activity (class of schedule) ([2]; mg/kg: 5 PO D1-4,15-18, 5 PO D1-7, 15 PO D1,8,15): Insufficient | Activity (class of schedule) ([2]; mg/kg: 10 PO D1,2,8,9, 3 IV D1,2,8,9, 3 IV D1,4,8,11, 10 PO D1-3, 10 PO D1,4,8,11, 10 PO D1-4,15-18, 15 PO D1,2,8,9, 6 IV D1,2,8,9, 12 IV D1,8): Minimal | Activity (class of schedule) ([2]; mg/kg: 30 PO D1,8,15, 10 PO D1-7, 20 PO D1-3, 60 PO D1, 30 PO D1,4,8, 30 PO D1,2, 30 PO D1-3, 45 PO D1,2): Optimal
